Three compounds from ChEMBL document CHEMBL1148133, “New diterpene glycosides of the fungus Acremonium striatisporum isolated from a sea cucumber” (J Nat Prod, 2002) can be followed below.

Each structure is given as a SMILES string. In brackets after ≈: the same amount, converted by molar mass.

The nature of assay [1]: Cytotoxicity against mouse EAC. The assay is classed as functional, cell-based. Conditions: Ehrlich.
Assay [2] can be described thus: Cytotoxicity against Strongylocentrotus intermedius developing egg. The assay is classed as functional.

As usually defined, the IC50 is the concentration needed to halve the response being measured.

`C=C[C@@]1(C)CC[C@H]2C(=CC[C@@H]3[C@]2(C)CC[C@H](O)[C@]3(C)CO[C@@H]2O[C@H](CO)[C@@H](O)[C@H](O)[C@@H]2O)C1` [VIRESCENOSIDE Q] yielded a concentration for half-maximal inhibition (IC50) in assay [1] of 20 µM. `C=C[C@]1(C)C=C2[C@H](O)C[C@@H]3[C@](C)(CC[C@H](O)[C@]3(C)CO[C@@H]3O[C@H](CO)[C@@H](O)[C@@H](O)[C@@H]3O)[C@H]2CC1` [VIRESCENOSIDE O]: the half-inhibitory concentration (IC50) in assay [1] amounted to 20 µM.

As to `C=C[C@@]1(C)CCC2=C(C1)C(=O)C[C@H]1[C@@](C)(CO[C@@H]3O[C@H](CO)[C@@H](O)[C@@H](O)[C@@H]3O)[C@@H](O)CC[C@]21C` [VIRESCENOSIDE P], in assay [2], the MIC was 5 µM (≈ 2.4 µg/mL). The IC50 in assay [1] turned out to be 20 µM.
